Tested on: T-47D spheroids with HUVEC/MSC, viability
Assay: Anticancer human tumor T-47D cell line growth inhibition [PI3K];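 also: spheroids exposed to agents for seven days before reading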;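 as to viability, T/C: percent of DMSO vehicle control luminescence so 100% = untreated growth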
Conditions: for IC50: curve of first compound; for viability, T/C: stronger effect = lower value
Method in brief: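 Multi-cell spheroids combine tumor cells with HUVEC and human MSCs, treated with targeted agents alone or with inavolisib, alpelisib, duvelisib or copanlisib. Concentrations fall in half-log steps from at or near clinical Cmax, or from 10 microM where Cmax is unknown; viability read-out.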

[1] = second compound 0.0316 µM, first compound 0.0316 µM
[2] = second compound 0.0316 µM, first compound 0.1 µM
[3] = second compound 0.0316 µM, first compound 0.316 µM
[4] = second compound 0.0316 µM, first compound 1 µM
[5] = second compound 0.0316 µM, first compound 3.16 µM
[6] = second compound 0.0316 µM, first compound 10 µM
[7] = second compound 0.1 µM, first compound 0.0316 µM
[8] = second compound 0.1 µM, first compound 0.1 µM
[9] = second compound 0.1 µM, first compound 0.316 µM
[10] = second compound 0.1 µM, first compound 1 µM
[11] = second compound 0.1 µM, first compound 3.16 µM
[12] = second compound 0.1 µM, first compound 10 µM
[13] = second compound 0.316 µM, first compound 0.0316 µM
[14] = second compound 0.316 µM, first compound 0.1 µM
[15] = second compound 0.316 µM, first compound 0.316 µM
[16] = second compound 0.316 µM, first compound 1 µM
[17] = second compound 0.316 µM, first compound 3.16 µM
[18] = second compound 0.316 µM, first compound 10 µM
[19] = second compound 1 µM, first compound 0.0316 µM
[20] = second compound 1 µM, first compound 0.1 µM
[21] = second compound 1 µM, first compound 0.316 µM
[22] = second compound 1 µM, first compound 1 µM
[23] = second compound 1 µM, first compound 3.16 µM
[24] = second compound 1 µM, first compound 10 µM
[25] = second compound 3.16 µM, first compound 0.0316 µM
[26] = second compound 3.16 µM, first compound 0.1 µM
[27] = second compound 3.16 µM, first compound 0.316 µM
[28] = second compound 3.16 µM, first compound 1 µM
[29] = second compound 3.16 µM, first compound 3.16 µM
[30] = second compound 3.16 µM, first compound 10 µM
[31] = second compound 10 µM, first compound 0.0316 µM
[32] = second compound 10 µM, first compound 0.1 µM
[33] = second compound 10 µM, first compound 0.316 µM
[34] = second compound 10 µM, first compound 1 µM
[35] = second compound 10 µM, first compound 3.16 µM
[36] = second compound 10 µM, first compound 10 µM

## CC(C)NCC(C(=O)N1CCN(c2ncnc3c2C(C)CC3O)CC1)c1ccc(Cl)cc1 (centres undefined) + Cc1nc(NC(=O)N2CCCC2C(N)=O)sc1-c1ccnc(C(C)(C)C(F)(F)F)c1
Second compound 0.0316 µM
  IC50: > 10 µM
Second compound 0.1 µM
  IC50: 7.98 µM
Second compound 0.316 µM
  IC50: > 10 µM
Second compound 1 µM
  IC50: 2.12 µM
Second compound 3.16 µM
  IC50: 0.585 µM
Second compound 10 µM
  IC50: < 0.0316 µM
[1]
  viability, T/C: 85.2%
[2]
  viability, T/C: 79.7%
[3]
  viability, T/C: 84.6%
[4]
  viability, T/C: 61.1%
[5]
  viability, T/C: 58.1%
[6]
  viability, T/C: 55.3%
[7]
  viability, T/C: 93.5%
[8]
  viability, T/C: 86.4%
[9]
  viability, T/C: 81.1%
[10]
  viability, T/C: 62.6%
[11]
  viability, T/C: 58.1%
[12]
  viability, T/C: 47.7%
[13]
  viability, T/C: 88.7%
[14]
  viability, T/C: 87.8%
[15]
  viability, T/C: 73.1%
[16]
  viability, T/C: 66%
[17]
  viability, T/C: 49.8%
[18]
  viability, T/C: 55.5%
[19]
  viability, T/C: 81.9%
[20]
  viability, T/C: 82.5%
[21]
  viability, T/C: 79.1%
[22]
  viability, T/C: 62.7%
[23]
  viability, T/C: 43.1%
[24]
  viability, T/C: 40.3%
[25]
  viability, T/C: 57.5%
[26]
  viability, T/C: 57.5%
[27]
  viability, T/C: 56.7%
[28]
  viability, T/C: 44.1%
[29]
  viability, T/C: 37%
[30]
  viability, T/C: 37.2%
[31]
  viability, T/C: 37.4%
[32]
  viability, T/C: 32.9%
[33]
  viability, T/C: 34.6%
[34]
  viability, T/C: 27%
[35]
  viability, T/C: 22.1%
[36]
  viability, T/C: 28.6%

## C#Cc1c(F)ccc2cc(O)cc(-c3ncc4c(N5CC6CCC(C5)N6)nc(OCC56CCCN5CC(F)C6)nc4c3F)c12 (centres undefined) + CC(Nc1ncnc2nc[nH]c12)c1cc2cccc(Cl)c2c(=O)n1-c1ccccc1
Second compound 0.0316 µM
  IC50: > 10 µM
Second compound 0.1 µM
  IC50: > 10 µM
Second compound 0.316 µM
  IC50: > 10 µM
Second compound 1 µM
  IC50: > 10 µM
Second compound 3.16 µM
  IC50: > 10 µM
Second compound 10 µM
  IC50: > 10 µM
[1]
  viability, T/C: 101%
[2]
  viability, T/C: 116%
[3]
  viability, T/C: 96.5%
[4]
  viability, T/C: 106%
[5]
  viability, T/C: 102%
[6]
  viability, T/C: 104%
[7]
  viability, T/C: 96.4%
[8]
  viability, T/C: 86.3%
[9]
  viability, T/C: 106%
[10]
  viability, T/C: 106%
[11]
  viability, T/C: 110%
[12]
  viability, T/C: 89.3%
[13]
  viability, T/C: 109%
[14]
  viability, T/C: 80.9%
[15]
  viability, T/C: 104%
[16]
  viability, T/C: 95.2%
[17]
  viability, T/C: 106%
[18]
  viability, T/C: 97.8%
[19]
  viability, T/C: 92.4%
[20]
  viability, T/C: 116%
[21]
  viability, T/C: 97.5%
[22]
  viability, T/C: 76.7%
[23]
  viability, T/C: 116%
[24]
  viability, T/C: 93.1%
[25]
  viability, T/C: 92.6%
[26]
  viability, T/C: 93.5%
[27]
  viability, T/C: 101%
[28]
  viability, T/C: 84.3%
[29]
  viability, T/C: 86.8%
[30]
  viability, T/C: 86%
[31]
  viability, T/C: 107%
[32]
  viability, T/C: 91.3%
[33]
  viability, T/C: 109%
[34]
  viability, T/C: 87.9%
[35]
  viability, T/C: 97.3%
[36]
  viability, T/C: 89.6%

Reference: PubChem BioAssay AID1963959 (Molecular Pharmacology Branch, DTP, NCI, 2024)
